The values below come from patent EP2487171A1, “Dihydrobenzopyran, thiochroman, tetrahydroquinoleine and tetrahydronaphthalene derivatives and their use in anti-cancer therapy” (Université de Liège, priority 2011, dated 2012).

For assay [1], the system named is Astrocytes - Mouse normal brain cells. The assay can be described thus: MTT colorimetric assay on normal astrocytes (bioselectivity). Type of assay: cell-based. To be noted: Astrocyte, primocultures of astrocytes from newborn mice, 72h, read-out: Mean IC50 MTT values ± SEM (µM) Astrocytes - Mouse normal brain cells (II - 72h).
The test system of assay [2] is three Human Glioma Cell Lines. Kind of assay: MTT colorimetric assay, mean over the three glioma cell lines. Type of assay: cell-based. To be noted: mean of the three human glioma cell lines, 72h (Table 2); read-out: Mean IC50 MTT values ± SEM (µM) Glioma - Human Brain cancer cells (I - 72h). The method, then: (§1) Table 2: Bioselectivity determined by dividing the IC50 obtained with glioma cell lines by the IC50 obtained with normal astrocytes. Bioselectivity was determined only for those compounds whose mean + SEM values on the three human glioma cell lines were ≤ 20 µM.

For assay [3], the system named is human U373 glioma cell line. The assay can be described thus: Quantitative videomicroscopy (computer-assisted phase-contrast microscopy). Type of assay: cell-based. The following applies: U373 cells treated at the IC50 concentration from MTT, filmed for 72h; cytostatic versus cytotoxic effects. From the text:
In addition, the inventors could establish that the compounds of the invention act through a non-apoptosis-related mechanism thanks to a unique experimental approach used by the inventors, i.e. computer-assisted phase-contrast microscopy (quantitative videomicroscopy), making them good candidates as anti-cancer drugs for treating apoptosis-resistant tumor or cancer cells and for overcoming problems linked to the known anti-cancer drugs.
As the MTT test is based on the mitochondria functions, we also investigated the effects of the compounds according to the invention on cell proliferation, migration and morphology by means of a cellular imaging approach (Debeir et al., Cytometry 60:29-40, 2004; Debeir et al., IEEE Trans Med Imaging 24:697-711, 2005) in the human U373 glioma cell line, which is apoptosis-resistant but autophagy-sensitive (Lefranc F et al., Neurosurgery 2008).
Cellular imaging relied on the use of computer-assisted phase-contrast microscopy making possible to film the behaviour of living cells in culture dishes for several days.
Cells were seeded in a 25-cm^2 flask at a low density, treated or not with the compounds of the invention (at their IC50 concentration determined previously by MTT tests) and filmed thereafter for a period of 72h. The experiment was conducted in triplicate.
The behaviour of the cells, in terms of morphology, growth and death were thus investigated. The effect on the overall growth was measured by counting the number of cells on the first (0h) and the last image (72h) of each film. The global growth ratio (GGR) was then deduced by dividing the number of cells on the last image by the number of cells on the first image. The ratio GGRtreated cells / GGRcontrol cells, was further calculated thereby obtaining a value that describes the effect of compounds of the present invention on the overall cell growth.
The methodology is fully described and validated in Debeir et al., 2008, Exp Cell Res 314:2985-2998 and Mathieu et al., 2009, J Cell Mol Med, Feb 20, 2009.
Thanks to the quantitative videomicroscopy (QVM) approach, we classified the compounds into 4 distinctive classes on the basis of their cytostatic versus cytotoxic effects (Table 3). • Class I: actually cytostatic for 3 days (< 10 % of cell death at the 3rd day) • Class II: cytostatic but becomes cytotoxic with < 10% cell death on the 2nd day and > 20% of cell death on the 3rd day • Class III: cytostatic but rapidly becomes cytotoxic with < 10% cell death on the 1st day, > 20% of cell death on the 2nd day and > 50% of cell death on the 3rd day • Class IV: cytotoxic (> 50% of cell death on the first day)
In Fig. 1a, compounds of example 14 (5 µM), example 19 (20 µM) and example 23 (5 µM) belong to QVM Class I because they display cytostatic effects on human U373 GBM cells during the whole duration of the experiment. Cytostatic effects mean that < 10 % of cell death was recorded at the end of the experiment, i.e. at the end of the 3rd day. QVM analyses enable the global growth ratio (GGR) to be calculated in each experiment. The GGR index is obtained by dividing the number of cells in the last image by the number of cells in the first image of the experiment, knowing that 1080 images are taken during the 72 h-period of observation. The ratio GGR^treated cells / GGR^control cells was further calculated thereby obtaining a value that describes the effect of compounds on the overall cell growth. Thus, a GGR index of 0.2 means that they remain only 20% of treated cells compare to the control cells at the end of the experiment.

Another assay relates to T98G. The assay can be described thus: MTT colorimetric assay, overall cell growth. To be noted: Homo sapiens, 72 h, read-out: IC50 (µM) In Vitro Growth Inhibitory Concentrations (MTT Colorimetric Assay) T98G.
Assay [4] deals with Astrocytes - Mouse normal brain cells. The assay can be described thus: MTT colorimetric assay on normal astrocytes (bioselectivity). Type of assay: cell-based. The method, then: as §1
The subject of a further assay is Hs683. The assay can be described thus: MTT colorimetric assay, overall cell growth. Type of assay: cell-based. To be noted: Homo sapiens, Hs 683; Hs683 cells, 72 hours of incubation; read-out: IC50 (µM) In Vitro Growth Inhibitory Concentrations (MTT Colorimetric Assay) Hs683.
In the next assay the test system is U373. Kind of assay: MTT colorimetric assay, overall cell growth. To be noted: Homo sapiens, U373 MG; U373 cells, 72 hours of incubation; read-out: IC50 (µM) In Vitro Growth Inhibitory Concentrations (MTT Colorimetric Assay) U373. The assay is classed as cell-based.

Description for Hs683: The compounds and particularly dihydrobenzopyran, thiochroman, tetrahydroquinoleine and tetrahydronaphthalene derivatives of the invention were evaluated for their anti-proliferative effect (by means of the colorimetric MTT assay), in the following human glioblastoma cell-lines U373, T98G and Hs683 and in the mouse glioma cell line GL261. Normal brain cells (primocultures from newborn mice) were also used in order to determine the bioselectivity (B^N/C) of the compounds of interest, i.e. the ratio between the concentrations that inhibits 50% of the growth of brain cancer (C) cells (glioma cells) and the concentration that inhibits 50% of the growth of normal (N) brain cells (primocultures of astrocytes). The ideal situation to be reached is a bioselectivity of B^N/C > 10.
(§2) MTT tests were performed in order to rapidly, i.e. within 5 days, measure the effect of compounds of this invention on the overall cell growth. The test measured the number of metabolically active living cells that were able to transform the yellow product 3-(4,5-dimethylthiazol-2-yl)-2,5-diphenyl tetrazolium bromide (herein referred as MTT) into the blue product formazan dye by mitochondrial reduction. The amount of formazan obtained at the end of the experiment, measured by means of a spectrophotometer, is directly proportional to the number of living cells. Optical density determination thus enabled a quantitative measurement of the effect of the investigated compounds as compared to the control condition (untreated cells) and/or to other reference compounds.
(§3) Three human cancer cell lines were used in the following MTT tests.
(§4) To perform the assay, cells were allowed to grow in 96-well micro-wells with a flat bottom with an amount of 100 µl of cell suspension per well with 1,000 to 8,000 cells/well depending on the cell type used. Each cell line was seeded in its appropriate culture medium.
(§5) The detailed experimental procedure was the following: after a 24-hour period of incubation at 37°C, the culture medium was replaced by 100 µl of fresh medium in which the tested compound was previously dissolved, at the following molar concentrations: 10^-8 M, 5.10^-8 M, 10^-7 M, 5.10^-7 M, 10^-6 M, 5.10^-6 M, 10^-5 M, 5.10^-5 M and 10^-4 M. Each experiment was performed in sextuplicate (6 times).
After 72 hours of incubation at 37°C with (experimental conditions) or without (control condition) the compound to be tested, the medium was replaced by 100 µl MTT dissolved in RPMI (1640 without phenol red) at a concentration of 0.5 mg/ml. The micro-wells were subsequently incubated during 3 hours and a half at 37°C and centrifuged at 1300 rpm during 10 minutes. MTT was removed and formazan crystals formed were dissolved in 100 µl DMSO. The micro-wells were shaken for 5 minutes and read on a spectrophotometer at wavelengths of 570 nm (maximal formazan absorbance).
(§6) For each experimental condition, the mean optical density was calculated, allowing the determination of the percentage of remaining living cells in comparison to the control.
Description for T98G: The compounds and particularly dihydrobenzopyran, thiochroman, tetrahydroquinoleine and tetrahydronaphthalene derivatives of the invention were evaluated for their anti-proliferative effect (by means of the colorimetric MTT assay), in the following human glioblastoma cell-lines U373, T98G and Hs683 and in the mouse glioma cell line GL261. Normal brain cells (primocultures from newborn mice) were also used in order to determine the bioselectivity (B^N/C) of the compounds of interest, i.e. the ratio between the concentrations that inhibits 50% of the growth of brain cancer (C) cells (glioma cells) and the concentration that inhibits 50% of the growth of normal (N) brain cells (primocultures of astrocytes).
as §2, §3, §4, §5
The micro-wells were subsequently incubated during 3 hours and a half at 37°C and centrifuged at 1300 rpm during 10 minutes. MTT was removed and formazan crystals formed were dissolved in 100 µl DMSO. The micro-wells were shaken for 5 minutes and read on a spectrophotometer at wavelengths of 570 nm (maximal formazan absorbance).
as §6

Regarding `CC(C)(C)OC(=O)Nc1ccc2c(c1)C(NC(=O)Nc1cccc(Cl)c1)CC(C)(C)O2` (racemic) [Example 16, R/S-N-3-chlorophenyl-N'-(6-tert-butoxycarbonylamino-3,4-dihydro-2,2-dimethyl-2H-1-benzopyran-4-yl)urea], the IC50 was more than 200 µM in assay [1]; 17 ± 3 µM in assay [2]; 20 µM with T98G; 12 µM in the assay with Hs683; 18 µM with U373. Further, the “QVM Class” value in assay [3] is “III (Class III: cytostatic but rapidly becomes cytotoxic with < 10% cell death on the 1st day, > 20% of cell death on the 2nd day and > 50% of cell death on the 3rd day)”. Moreover, the “Bioselectivity (I / II)” value in assay [4] is reported as more than 12.
Turning to `CC(C)(C)OC(=O)Nc1ccc2c(c1)C(NC(=O)Nc1cccc(C#N)c1)CC(C)(C)O2` (racemic) [Example 14, R/S-N-3-cyanophenyl-N'-(6-tert-butoxycarbonylamino-3,4-dihydro-2,2-dimethyl-2H-1-benzopyran-4-yl)urea], the IC50 in assay [1] was more than 20 µM; in assay [2] it was 2 ± 1 µM; with T98G, 3 µM; with Hs683, 2 µM; with U373 it was 2 µM. Further, the “QVM Class” value in assay [3] is “I (Class I: actually cytostatic for 3 days (< 10 % of cell death at the 3rd day))”. Also, the “Bioselectivity (I / II)” value in assay [4] is recorded as more than 10.
For `CC(C)(C)OC(=O)Nc1ccc2c(c1)C(NC(=O)Nc1cc(F)cc(F)c1)CC(C)(C)O2` (racemic) [Example 21, R/S-N-3,5-difluorophenyl-N'-(6-tert-butoxycarbonylamino-3,4-dihydro-2,2-dimethyl-2H-1-benzopyran-4-yl)urea], the IC50 was approximately 45 µM in assay [1]; 9 ± 3 µM in assay [2]; 14 µM with T98G; 7 µM in the assay on Hs683; 6 µM with U373. The “QVM Class” value in assay [3] is recorded as “I (Class I: actually cytostatic for 3 days (< 10 % of cell death at the 3rd day))”. In addition, the “Bioselectivity (I / II)” value in assay [4] is “∼ 5”.
